How the values were obtained:
[1] = Photodegradation of sulcotrione on carnauba wax films irradiated in a Suntest reactor, HPLC analysis; assay type: physicochemical; conditions: wax film, 6 hours irradiation
From the text: The methodology for conducting the tests on thin films of cuticular wax comprises the following steps: • Preparation of the wax film: the wax which is used is the commercial carnauba wax. • Adding the pesticide. On the one hand, the active ingredient, sulcotrione, and on the other hand, the commercial formulation, Mikado®(alone or with the adding of at least one extract of at least one tinctorial plant, is deposited under the form of an aqueous solution on the surface of the leaves. The amount of active ingredient deposited by surface unit is equivalent to the amount used in agriculture. The studies are conducted after evaporation of the water. • Recovering of the pesticide. The films are rinsed with water and analysed by HPLC. It has been checked that the step of recovering is quantitative. • Tests in darkness. The concentration of the active ingredients on the surface of the leaves in darkness is controlled in order to measure the penetration rate of the active ingredient in the films and its volatilisation. […]
The photoprotective effects of the extracts according to the invention have been evaluated as follows The surface concentration of the active ingredient (sulcotrione) on the wax films is of 0.76 10^−5 g/cm^2, the active ingredient being used either pure or under the form of a commercial formulation. […]

[2] = Mikado spread on maize plants planted in a field, leaf surface checked by HPLC; conditions: spread as Mikado
From the text: For this aim, the commercial formulation, Mikado®, has been spread on maize plants planted in a field.
The amount of sulcotrione and the formation of a by-product of the phototransformation on the surface of the leaves have been checked by HPLC.

[3] = Tests in darkness on wax films (penetration and volatilisation); assay type: physicochemical; conditions: wax film
From the text: The methodology for conducting the tests on thin films of cuticular wax comprises the following steps: • Preparation of the wax film: the wax which is used is the commercial carnauba wax. • Adding the pesticide. On the one hand, the active ingredient, sulcotrione, and on the other hand, the commercial formulation, Mikado®(alone or with the adding of at least one extract of at least one tinctorial plant, is deposited under the form of an aqueous solution on the surface of the leaves. The amount of active ingredient deposited by surface unit is equivalent to the amount used in agriculture. The studies are conducted after evaporation of the water. • Recovering of the pesticide. The films are rinsed with water and analysed by HPLC. It has been checked that the step of recovering is quantitative. • Tests in darkness. The concentration of the active ingredients on the surface of the leaves in darkness is controlled in order to measure the penetration rate of the active ingredient in the films and its volatilisation. […] Irradiation tests are conducted in a Suntest reactor simulating solar rays in temperate countries.

[4] = cited from earlier work

CS(=O)(=O)c1ccc(C(=O)C2C(=O)CCCC2=O)c(Cl)c1 [sulcotrione]
Weight percentage of remaining active ingredient after 6 hours of UV exposure [1]: 5-10%
detection of sulcotrione on the surface of the leaves ([2]; maize plants in a field, after 24 hours): no longer detected
sulcotrione transformed ([2]; surface of maize leaves in a field, after one hour): 25%
penetration of the active ingredient into the films [3]: penetrates slowly into the films
volatilisation of the active ingredient [3]: very little active ingredients volatilize
half-life in water [4]: about 80 days

— patent US8980793B2, “Phytosanitary formulations” (Centre National de la Recherche Scientifique (CNRS), priority 2007, dated 2015)
